How the values were obtained:
[1] = test system: MOLM14 cells; test: Proliferation assay, spheroid-like growth, MOLM14 (MLL-AF9 rearranged); assay type: cell-based, human; settings: Homo sapiens, MOLM-14, 192 h, 8 days, confluence as measure of spheroid size, read-out: spheroid assay_OneTime MOLM14 IC50
How it was run: (§1)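 MOLM14 (MLL-AF9) or KO-52 (MLL wildtype) cells were grown in ultra-low attachment round-bottom wells with compound (0.3% DMSO) for 8 days at 37 °C. Spheroid confluence was imaged live on day 8, normalized to DMSO and a high-dose reference/staurosporin control, and absolute IC50 fitted with variable slope.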

[2] = molecular target: T1, menin/MLL (terbium chelate-labeled menin, FITC-MBM1 peptide) (Homo sapiens, UniProt O00255, T541A); test: Menin/MLL homogenous time-resolved fluorescence (HTRF) assay; assay type: binding; settings: 30 min incubation
T1 construct: Menin (a.a 1-610-6xhis tag)
T1 sequence (O00255 with tags, fused parts or gaps T541A): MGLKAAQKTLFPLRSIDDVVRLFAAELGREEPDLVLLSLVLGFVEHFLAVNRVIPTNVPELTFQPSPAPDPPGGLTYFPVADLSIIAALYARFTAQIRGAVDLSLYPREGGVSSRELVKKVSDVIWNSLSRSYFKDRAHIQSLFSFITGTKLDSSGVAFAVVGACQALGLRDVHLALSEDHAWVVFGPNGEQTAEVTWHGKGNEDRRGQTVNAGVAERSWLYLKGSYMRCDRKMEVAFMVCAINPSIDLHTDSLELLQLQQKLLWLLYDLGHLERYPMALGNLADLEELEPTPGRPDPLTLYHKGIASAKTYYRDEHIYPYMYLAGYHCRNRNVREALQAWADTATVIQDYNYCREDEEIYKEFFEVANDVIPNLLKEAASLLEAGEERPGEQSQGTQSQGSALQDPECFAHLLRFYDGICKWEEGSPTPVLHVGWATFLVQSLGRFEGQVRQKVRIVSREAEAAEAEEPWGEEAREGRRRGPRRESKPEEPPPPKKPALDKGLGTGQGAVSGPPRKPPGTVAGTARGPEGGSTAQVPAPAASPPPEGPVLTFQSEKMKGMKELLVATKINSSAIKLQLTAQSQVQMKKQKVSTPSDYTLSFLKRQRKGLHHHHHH
How it was run: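 Read-out: TR-FRET ratio (FITC 520 nm / terbium 490 nm, ex. 337 nm) after 15 min with 75 nM FITC-MBM1 peptide. Test compound first sat 30 min with 200 pM Tb-menin 1-610-His, 0.5% DMSO, pH 7.5 Tris buffer. IC50 by Hill fit; values under 0.1 nM reported as 0.1 nM.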

[3] = test system: KO-52 cells; test: Proliferation assay, spheroid-like growth, KO-52 (MLL wildtype control cell line); assay type: cell-based, human; settings: Homo sapiens, 192 h, KO-52 control cells, 8 days, confluence as measure of spheroid size; read-out: spheroid assay_OneTime KO-52 IC50
How it was run: as §1

Structure (SMILES) | IC50 [1] [nM] | IC50 [2] [nM] | IC50 [3] [nM]
Fc1ccc(Oc2nncnc2N2CCC3(C2)CN([C@@H](C2CCN(CC4COC4)CC2)C24CC(C2)C4)C3)c(-c2cncnc2C2CC2)c1 (single isomer, unassigned) [Compound 336] | 180 | 0.6 | 7650
O=c1cc(C2CC2)c(-c2cc(F)ccc2Oc2nncnc2N2CCC3(C2)CN([C@@H](C2CCN(CC4COC4)CC2)C24CC(C2)C4)C3)n[nH]1 (single isomer, unassigned) [Compound 339] | > 940 | 0.4 | > 15000
CS(=O)(=O)C1CCN([C@H]2C[C@@H]([C@@H](N3CC4(CCN(c5ncnnc5Oc5ccc(F)cc5-c5cncnc5C5CC5)C4)C3)C34CC(C3)C4)C2)CC1 (single isomer, unassigned) [Compound 341] | > 940 | 3 | > 15000
CC(=O)N[C@H]1C[C@@H]([C@H](N2CC3(CCN(c4ncnnc4Oc4ccc(F)cc4-c4cncnc4C4CC4)C3)C2)C23CC(C2)C3)C1 (single isomer, unassigned) [Compound 342] | 82 | 0.3 | 5840
CC(=O)N[C@H]1C[C@@H]([C@@H](C(C)C)N2CC3(CCN(c4ncnnc4Oc4ccc(F)cc4-c4cnc(C#N)nc4C4CC4)C3)C2)C1 (single isomer, unassigned) [Compound 343] | 15 | 0.2 | 1140
CC(C)[C@@H]([C@H]1CC[C@@H](NC(=O)C2CC2)C1)N1CC2(CCN(c3ncnnc3Oc3ccc(F)cc3-c3cncnc3C3CC3)C2)C1 (single isomer, unassigned) [Compound 344] | 54 | 0.1 | 1590
CC(C)[C@H]([C@H]1C[C@H](N2CCC2)C1)N1CC2(CCN(c3ncnnc3Oc3ccc(F)cc3-c3cncnc3C3CC3)C2)C1 (single isomer, unassigned) [Compound 345] | 55 | 1 | 7400
CC(C)[C@@H]([C@H]1C[C@H](N2CCC2)C1)N1CC2(CCN(c3ncnnc3Oc3ccc(F)cc3-c3cncnc3C3CC3)C2)C1 (single isomer, unassigned) [Compound 346] | 700 | 2.3 | > 15000
CC(C)[C@H]([C@H]1C[C@@H](N(C)CCC(=O)N(C)C)C1)N1CC2(CCN(c3ncnnc3Oc3ccc(F)cc3-c3cncnc3C3CC3)C2)C1 (single isomer, unassigned) [Compound 348] | 4 | 0.2 | 10200
CC(C)[C@H](C1CCN(C[C@H]2C[C@@](C)(O)C2)CC1)N1CC2(CCN(c3ncnnc3Oc3ccc(F)cc3-c3cccnc3C3CC3)C2)C1 (single isomer, unassigned) [Compound 351] | 20 | 0.1 | 1100
CC(C)[C@H](C1CN(CC2COC2)C1)N1CC2(CCN(c3ncnnc3Oc3ccc(F)cc3-c3cncnc3C3CC3)C2)C1 (single isomer, unassigned) [Compound 354] | 2430 | 7.4 | > 15000
CCC(=O)N[C@H]1C[C@@H]([C@@H](C(C)C)N2CC3(CCN(c4ncnnc4Oc4ccc(F)cc4-c4cncnc4C4CC4)C3)C2)C1 (single isomer, unassigned) [Compound 356] | 11 | 0.3 | > 15000
CC(C)[C@H](C1CCN(C[C@H]2C[C@@H](O)C2)CC1)N1CC2(CCN(c3ncnnc3Oc3ccc(F)cc3-c3cncnc3C3CC3)C2)C1 (single isomer, unassigned) [Compound 357] | 45 | 0.1 | 9790
CC(C)[C@H](C1CCN(C[C@H]2C[C@H](O)C2)CC1)N1CC2(CCN(c3ncnnc3Oc3ccc(F)cc3-c3cncnc3C3CC3)C2)C1 (single isomer, unassigned) [Compound 358] | 23 | 0.1 | 2210
CC(=O)N1CC2(C1)CN([C@H]1C[C@@H]([C@H](C(C)C)N3CC4(CCN(c5ncnnc5Oc5ccc(F)cc5-c5cnc(C)cc5C5CC5)C4)C3)C1)C2 (single isomer, unassigned) [Compound 371] | 3 | 0.15 | 10100
CC(=O)N1CC2(C1)CN([C@H]1C[C@@H]([C@H](C(C)C)N3CC4(CCN(c5ncnnc5Oc5ccc(F)cc5-c5ncc(C)cc5C5CC5)C4)C3)C1)C2 (single isomer, unassigned) [Compound 373] | 7.6 | 0.77 | 5410

Structure (SMILES) | IC50 [1] [nM] | IC50 [2] [nM] | IC50 [3] [nM]
CC(=O)Nc1nccc(N[C@H]2C[C@@H]([C@@H](C(C)C)N3CC4(CCN(c5ncnnc5Oc5ccc(F)cc5-c5cncnc5C5CC5)C4)C3)C2)n1 (single isomer, unassigned) [Compound 405] | 3 | 0.22 | 7570
CC(C)[C@H]([C@H]1C[C@@H](Nc2ncc(C(=O)N(C)C)o2)C1)N1CC2(CCN(c3ncnnc3Oc3ccc(F)cc3-c3cncnc3C3CC3)C2)C1 (single isomer, unassigned) [Compound 435] | 3 | 0.17 | 2470
CNC(=O)c1cnc(N[C@H]2C[C@@H](C(C(C)C)N3CC4(CCN(c5ncnnc5Oc5ccc(F)cc5-c5cncnc5C5CC5)C4)C3)C2)o1 (single isomer, unassigned) [Compound 436] | 9.9 | 0.36 | 5970
CNC(=O)c1cnc(N[C@H]2C[C@@H]([C@@H](C(C)C)N3CC4(CCN(c5ncnnc5Oc5ccc(F)cc5-c5cncnc5C5CC5)C4)C3)C2)s1 (single isomer, unassigned) [Compound 437] | 3.3 | 0.05 | 4700
CCOC(=O)c1cnc(N[C@H]2C[C@@H](C(C(C)C)N3CC4(CCN(c5ncnnc5Oc5ccc(F)cc5-c5cncnc5C5CC5)C4)C3)C2)o1 (single isomer, unassigned) [Compound 478] | 12 | 0.29 | 1250
CC(C)C([C@H]1C[C@@H](Nc2ncc(C(=O)O)o2)C1)N1CC2(CCN(c3ncnnc3Oc3ccc(F)cc3-c3cncnc3C3CC3)C2)C1 (single isomer, unassigned) [Compound 479] | 530 | 1.77 | > 15000
CC(=O)N[C@H]1C[C@@H](C(C(C)C)N2CC3(CCN(c4ncnnc4Oc4ccc(F)cc4-c4cncnc4C4CC4)C3)C2)C1 (stereo partly drawn) [Compound 2] | 29 | 0.4 | 9040
CC(C)C(C1CCN(CC2COC2)CC1)N1CC2(CCN(c3ncnnc3Oc3ccc(F)cc3-c3cncnc3C3CC3)C2)C1 (stereo not drawn) [Compound 6] | 280 | 0.3 | 6470
CC(C)C([C@H]1C[C@@H](N2CCOCC2)C1)N1CC2(CCN(c3ncnnc3Oc3ccc(F)cc3-c3cncnc3C3CC3)C2)C1 (stereo partly drawn) [Compound 120] | 73 | 0.3 | > 15000
CC(C)C([C@H]1C[C@@H](N2CCC(O)CC2)C1)N1CC2(CCN(c3ncnnc3Oc3ccc(F)cc3-c3cncnc3C3CC3)C2)C1 (stereo partly drawn) [Compound 121] | 7 | 0.1 | 2780
CC(C)C([C@H]1C[C@@H](N2CCC(C#N)CC2)C1)N1CC2(CCN(c3ncnnc3Oc3ccc(F)cc3-c3cncnc3C3CC3)C2)C1 (stereo partly drawn) [Compound 122] | 55 | 0.2 | > 15000
CC(C)C([C@H]1C[C@@H](N2CCS(=O)(=O)CC2)C1)N1CC2(CCN(c3ncnnc3Oc3ccc(F)cc3-c3cncnc3C3CC3)C2)C1 (stereo partly drawn) [Compound 123] | 1910 | 5.4 | > 15000
COC1CCN([C@H]2C[C@@H](C(C(C)C)N3CC4(CCN(c5ncnnc5Oc5ccc(F)cc5-c5cncnc5C5CC5)C4)C3)C2)CC1 (stereo partly drawn) [Compound 124] | 12 | 0.2 | 2520
CC(C)C([C@H]1C[C@@H](N2CC(O)C2)C1)N1CC2(CCN(c3ncnnc3Oc3ccc(F)cc3-c3cncnc3C3CC3)C2)C1 (stereo partly drawn) [Compound 125] | 12 | 0.1 | 5300
CC(C)C([C@H]1C[C@H](N2CC(O)C2)C1)N1CC2(CCN(c3ncnnc3Oc3ccc(F)cc3-c3cncnc3C3CC3)C2)C1 (stereo partly drawn) [Compound 126] | 150 | 0.4 | 14900

— patent US20240417405A1, “Substituted Spiro Derivatives” (Janssen Pharmaceutica NV, priority 2021, published 2024)
